Laboratory results taken from PubChem BioAssay (NCI).
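Interpolation was linear, between the two tested concentrations surrounding the appropriate level; five concentrations were tested over 48 hours in 96-well plates. Here, GI50 denotes the concentration required for 50% inhibition of growth. TGI: total growth inhibition.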

Key:
Experiment in all cases: DTP human tumour cell line panel, 48 h
LOX IMVI melanoma = test system: LOX IMVI melanoma
M14 melanoma = test system: M14 melanoma
OVCAR-8 ovarian = test system: OVCAR-8 ovarian
SF-268 CNS = test system: SF-268 CNS
SK-MEL-5 melanoma = test system: SK-MEL-5 melanoma
UO-31 renal = test system: UO-31 renal
SNB-75 CNS = test system: SNB-75 CNS
MDA-MB-231 breast = test system: MDA-MB-231 breast
UACC-62 melanoma = test system: UACC-62 melanoma
NCI/ADR-RES ovarian = test system: NCI/ADR-RES ovarian
ACHN renal = test system: ACHN renal
T-47D breast = test system: T-47D breast
NCI-H23 lung = test system: NCI-H23 lung
MCF7 breast = test system: MCF7 breast
HOP-62 NSCLC = test system: HOP-62 NSCLC
U251 CNS = test system: U251 CNS
SF-539 CNS = test system: SF-539 CNS
MOLT-4 leukemia = test system: MOLT-4 leukemia
HCT-116 colon = test system: HCT-116 colon
EKVX NSCLC = test system: EKVX NSCLC
HOP-92 NSCLC = test system: HOP-92 NSCLC
NCI-H522 lung = test system: NCI-H522 lung
OVCAR-5 ovarian = test system: OVCAR-5 ovarian
RXF 393 renal = test system: RXF 393 renal
OVCAR-4 ovarian = test system: OVCAR-4 ovarian
PC-3 prostate = test system: PC-3 prostate
HCC-2998 colon = test system: HCC-2998 colon
DU-145 prostate = test system: DU-145 prostate
COLO 205 colon = test system: COLO 205 colon
CCRF-CEM leukemia = test system: CCRF-CEM leukemia
SR leukemia = test system: SR leukemia
KM12 colon = test system: KM12 colon
OVCAR-3 ovarian = test system: OVCAR-3 ovarian
SK-OV-3 ovarian = test system: SK-OV-3 ovarian
RPMI-8226 leukemia = test system: RPMI-8226 leukemia
SK-MEL-28 melanoma = test system: SK-MEL-28 melanoma
SW-620 colon = test system: SW-620 colon
UACC-257 melanoma = test system: UACC-257 melanoma
BT-549 breast = test system: BT-549 breast
SN12C renal = test system: SN12C renal
HL-60(TB) leukemia = test system: HL-60(TB) leukemia
SK-MEL-2 melanoma = test system: SK-MEL-2 melanoma
SNB-19 CNS = test system: SNB-19 CNS
SF-295 CNS = test system: SF-295 CNS
MDA-MB-435 = test system: MDA-MB-435
MALME-3M melanoma = test system: MALME-3M melanoma
HS 578T breast = test system: HS 578T breast
HCT-15 colon = test system: HCT-15 colon
IGROV1 ovarian = test system: IGROV1 ovarian
HT29 colon = test system: HT29 colon
A549 NSCLC = test system: A549 NSCLC
786-0 renal = test system: 786-0 renal
A498 renal = test system: A498 renal
NCI-H460 lung = test system: NCI-H460 lung
TK-10 renal = test system: TK-10 renal
NCI-H226 lung = test system: NCI-H226 lung
K-562 leukemia = test system: K-562 leukemia

## COc1ccc(C(=O)/C=C/c2ccc(OCc3ccc(Cl)cc3)cc2)cc1OC
LOX IMVI melanoma
  GI50: 91.3 µM
  TGI: > 1000 µM
M14 melanoma
  GI50: 150 µM
  TGI: > 1000 µM
OVCAR-8 ovarian
  GI50: 54.8 µM
  TGI: 633 µM
SF-268 CNS
  GI50: 159 µM
  TGI: > 1000 µM
SK-MEL-5 melanoma
  GI50: 64.3 µM
  TGI: 264 µM
UO-31 renal
  GI50: 190 µM
  TGI: > 1000 µM
SNB-75 CNS
  GI50: 111 µM
  TGI: 484 µM
MDA-MB-231 breast
  GI50: 94.6 µM
  TGI: > 1000 µM
UACC-62 melanoma
  GI50: 76.8 µM
  TGI: 376 µM
NCI/ADR-RES ovarian
  GI50: 109 µM
  TGI: > 1000 µM
ACHN renal
  GI50: 57.9 µM
  TGI: > 1000 µM
T-47D breast
  GI50: 71.9 µM
  TGI: > 1000 µM
NCI-H23 lung
  GI50: 172 µM
  TGI: > 1000 µM
MCF7 breast
  GI50: 47.4 µM
  TGI: > 1000 µM
HOP-62 NSCLC
  GI50: 110 µM
  TGI: 419 µM
U251 CNS
  GI50: 58.8 µM
  TGI: 314 µM
SF-539 CNS
  GI50: 159 µM
  TGI: > 1000 µM
MOLT-4 leukemia
  GI50: 276 µM
  TGI: > 1000 µM
HCT-116 colon
  GI50: 40.8 µM
  TGI: > 1000 µM
EKVX NSCLC
  GI50: 66.4 µM
  TGI: > 1000 µM
HOP-92 NSCLC
  GI50: 44.5 µM
  TGI: 365 µM
NCI-H522 lung
  GI50: 88.4 µM
  TGI: 351 µM
OVCAR-5 ovarian
  GI50: 499 µM
  TGI: > 1000 µM
RXF 393 renal
  GI50: 90.6 µM
  TGI: 502 µM
OVCAR-4 ovarian
  GI50: 44.2 µM
  TGI: 372 µM
PC-3 prostate
  GI50: 57.6 µM
  TGI: 435 µM
HCC-2998 colon
  GI50: 960 µM
  TGI: > 1000 µM
DU-145 prostate
  GI50: 202 µM
  TGI: > 1000 µM
COLO 205 colon
  GI50: 253 µM
  TGI: > 1000 µM
CCRF-CEM leukemia
  GI50: 190 µM
  TGI: > 1000 µM
SR leukemia
  GI50: 148 µM
  TGI: > 1000 µM
KM12 colon
  GI50: 171 µM
  TGI: > 1000 µM
OVCAR-3 ovarian
  GI50: 55.6 µM
  TGI: 230 µM
SK-OV-3 ovarian
  GI50: 142 µM
  TGI: 607 µM
RPMI-8226 leukemia
  GI50: 98.4 µM
  TGI: 773 µM
SK-MEL-28 melanoma
  GI50: 366 µM
  TGI: > 1000 µM
SW-620 colon
  GI50: 196 µM
  TGI: > 1000 µM
UACC-257 melanoma
  GI50: 244 µM
  TGI: > 1000 µM
BT-549 breast
  GI50: 81.8 µM
  TGI: 586 µM
SN12C renal
  GI50: 221 µM
  TGI: > 1000 µM
HL-60(TB) leukemia
  GI50: 65 µM
  TGI: 296 µM
SK-MEL-2 melanoma
  GI50: 252 µM
  TGI: > 1000 µM
SNB-19 CNS
  GI50: 42.7 µM
  TGI: 206 µM
SF-295 CNS
  GI50: 189 µM
  TGI: > 1000 µM
MDA-MB-435
  GI50: 150 µM
  TGI: > 1000 µM
MALME-3M melanoma
  GI50: 176 µM
  TGI: 639 µM
HS 578T breast
  GI50: 108 µM
  TGI: > 1000 µM
HCT-15 colon
  GI50: 112 µM
  TGI: > 1000 µM
IGROV1 ovarian
  GI50: 118 µM
  TGI: > 1000 µM
HT29 colon
  GI50: 163 µM
  TGI: > 1000 µM
A549 NSCLC
  GI50: 77.1 µM
  TGI: > 1000 µM
786-0 renal
  GI50: 71.2 µM
  TGI: 470 µM
A498 renal
  GI50: 141 µM
  TGI: 604 µM
NCI-H460 lung
  GI50: 68.6 µM
  TGI: > 1000 µM
TK-10 renal
  GI50: 396 µM
  TGI: > 1000 µM
NCI-H226 lung
  GI50: 63.1 µM
  TGI: 635 µM

## C=CCCCC(=O)CCC(=O)OCC1O[C@@H](O[C@@H]2C(O)[C@@H](OC(C)=O)C(C)O[C@H]2O[C@H](CC=C)CCCCC)C(O)[C@@H](OC(=O)/C(C)=C/C)[C@@H]1OC(=O)/C=C/c1ccccc1 (some centres undefined)
LOX IMVI melanoma
  GI50: 0.0275 µM
  TGI: 0.127 µM
M14 melanoma
  GI50: 0.0633 µM
OVCAR-8 ovarian
  GI50: 0.173 µM
  TGI: > 50 µM
SF-268 CNS
  GI50: 0.505 µM
  TGI: > 50 µM
SK-MEL-5 melanoma
  GI50: 0.0352 µM
  TGI: 0.517 µM
UO-31 renal
  GI50: 0.033 µM
  TGI: > 50 µM
SNB-75 CNS
  GI50: 0.0133 µM
  TGI: > 28 µM
MDA-MB-231 breast
  GI50: 0.00866 µM
  TGI: 0.0309 µM
UACC-62 melanoma
  GI50: 0.19 µM
  TGI: 5.62 µM
NCI/ADR-RES ovarian
  GI50: 1.92 µM
  TGI: > 50 µM
ACHN renal
  GI50: 0.151 µM
  TGI: > 50 µM
T-47D breast
  GI50: 0.0273 µM
  TGI: 1.21 µM
NCI-H23 lung
  GI50: 0.995 µM
  TGI: > 50 µM
MCF7 breast
  GI50: 0.0316 µM
  TGI: > 50 µM
HOP-62 NSCLC
  GI50: 0.235 µM
  TGI: > 50 µM
U251 CNS
  GI50: 0.0297 µM
  TGI: > 50 µM
SF-539 CNS
  GI50: 0.0546 µM
  TGI: 12.3 µM
MOLT-4 leukemia
  GI50: 2.09 µM
  TGI: > 50 µM
HCT-116 colon
  GI50: 0.0262 µM
  TGI: > 50 µM
EKVX NSCLC
  GI50: 0.428 µM
  TGI: > 50 µM
HOP-92 NSCLC
  GI50: 0.0384 µM
NCI-H522 lung
  GI50: 0.248 µM
  TGI: > 50 µM
OVCAR-5 ovarian
  GI50: 1.44 µM
  TGI: > 50 µM
RXF 393 renal
  GI50: 0.0766 µM
  TGI: > 50 µM
OVCAR-4 ovarian
  GI50: 2.29 µM
  TGI: > 50 µM
PC-3 prostate
  GI50: 0.198 µM
  TGI: > 50 µM
HCC-2998 colon
  GI50: 1.08 µM
  TGI: > 50 µM
DU-145 prostate
  GI50: 0.292 µM
  TGI: > 50 µM
COLO 205 colon
  GI50: 0.088 µM
  TGI: 1.55 µM
CCRF-CEM leukemia
  GI50: 0.551 µM
  TGI: > 50 µM
SR leukemia
  GI50: 0.142 µM
  TGI: 1.83 µM
KM12 colon
  GI50: 0.142 µM
  TGI: > 50 µM
OVCAR-3 ovarian
  GI50: 0.29 µM
  TGI: > 50 µM
SK-OV-3 ovarian
  GI50: 0.959 µM
  TGI: > 50 µM
RPMI-8226 leukemia
  GI50: 0.18 µM
  TGI: 3.26 µM
SK-MEL-28 melanoma
  GI50: 0.34 µM
  TGI: > 50 µM
SW-620 colon
  GI50: 0.122 µM
  TGI: > 50 µM
UACC-257 melanoma
  GI50: 0.0791 µM
  TGI: 8.11 µM
BT-549 breast
  GI50: 0.345 µM
  TGI: > 50 µM
SN12C renal
  GI50: 0.0881 µM
  TGI: 2.11 µM
HL-60(TB) leukemia
  GI50: 0.673 µM
  TGI: 3.34 µM
SK-MEL-2 melanoma
  GI50: 0.609 µM
  TGI: > 14.7 µM
SNB-19 CNS
  GI50: 0.518 µM
  TGI: > 50 µM
SF-295 CNS
  GI50: 0.0144 µM
  TGI: 5.51 µM
MDA-MB-435
  GI50: 0.0216 µM
  TGI: > 50 µM
MALME-3M melanoma
  GI50: 0.871 µM
  TGI: > 50 µM
HS 578T breast
  GI50: 0.131 µM
  TGI: > 50 µM
HCT-15 colon
  GI50: 0.263 µM
  TGI: > 50 µM
IGROV1 ovarian
  GI50: 0.28 µM
  TGI: > 50 µM
HT29 colon
  GI50: 0.0251 µM
  TGI: 3.06 µM
K-562 leukemia
  GI50: 0.267 µM
  TGI: > 50 µM
A549 NSCLC
  GI50: 0.0345 µM
  TGI: > 50 µM
786-0 renal
  GI50: 0.316 µM
  TGI: > 50 µM
A498 renal
  GI50: 0.612 µM
  TGI: > 50 µM
NCI-H460 lung
  GI50: 0.0656 µM
  TGI: > 50 µM
TK-10 renal
  GI50: 0.106 µM
  TGI: > 50 µM
NCI-H226 lung
  GI50: 0.564 µM
  TGI: > 50 µM
